Laboratory results taken from PubChem BioAssay (NCI).
“And” between values parts separate entries of the source, which are not always exact repeats. Identical values can stand only once.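 Tested at 5 concentrations; 48 h exposure; 96-well plates; endpoints linearly interpolated, else capped at highest concentration. GI50 = concentration required for 50% inhibition of growth. TGI: total growth inhibition.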

Legend:
Assay in all cases: NCI-60 cell line screen, 48 h
M14 melanoma = tested on: M14 melanoma
NCI/ADR-RES ovarian = tested on: NCI/ADR-RES ovarian
UO-31 renal = tested on: UO-31 renal
TK-10 renal = tested on: TK-10 renal
RPMI-8226 leukemia = tested on: RPMI-8226 leukemia
MOLT-4 leukemia = tested on: MOLT-4 leukemia
UACC-257 melanoma = tested on: UACC-257 melanoma
MCF7 breast = tested on: MCF7 breast
HCT-116 colon = tested on: HCT-116 colon
PC-3 prostate = tested on: PC-3 prostate
DU-145 prostate = tested on: DU-145 prostate
SR leukemia = tested on: SR leukemia
ACHN renal = tested on: ACHN renal
CCRF-CEM leukemia = tested on: CCRF-CEM leukemia
SF-539 CNS = tested on: SF-539 CNS
HCT-15 colon = tested on: HCT-15 colon
LOX IMVI melanoma = tested on: LOX IMVI melanoma
HOP-92 NSCLC = tested on: HOP-92 NSCLC
IGROV1 ovarian = tested on: IGROV1 ovarian
HL-60(TB) leukemia = tested on: HL-60(TB) leukemia
HT29 colon = tested on: HT29 colon
NCI-H23 lung = tested on: NCI-H23 lung
OVCAR-5 ovarian = tested on: OVCAR-5 ovarian
SK-MEL-28 melanoma = tested on: SK-MEL-28 melanoma
A498 renal = tested on: A498 renal
SNB-19 CNS = tested on: SNB-19 CNS
RXF 393 renal = tested on: RXF 393 renal
K-562 leukemia = tested on: K-562 leukemia
UACC-62 melanoma = tested on: UACC-62 melanoma
T-47D breast = tested on: T-47D breast
HS 578T breast = tested on: HS 578T breast
MDA-MB-231 breast = tested on: MDA-MB-231 breast
SK-MEL-5 melanoma = tested on: SK-MEL-5 melanoma
786-0 renal = tested on: 786-0 renal
SK-OV-3 ovarian = tested on: SK-OV-3 ovarian
OVCAR-4 ovarian = tested on: OVCAR-4 ovarian
OVCAR-8 ovarian = tested on: OVCAR-8 ovarian
SF-295 CNS = tested on: SF-295 CNS
MDA-MB-435 = tested on: MDA-MB-435
BT-549 breast = tested on: BT-549 breast
MALME-3M melanoma = tested on: MALME-3M melanoma
EKVX NSCLC = tested on: EKVX NSCLC
CAKI-1 renal = tested on: CAKI-1 renal
SK-MEL-2 melanoma = tested on: SK-MEL-2 melanoma
NCI-H522 lung = tested on: NCI-H522 lung
NCI-H226 lung = tested on: NCI-H226 lung
A549 NSCLC = tested on: A549 NSCLC
U251 CNS = tested on: U251 CNS
SN12C renal = tested on: SN12C renal
COLO 205 colon = tested on: COLO 205 colon
SF-268 CNS = tested on: SF-268 CNS
SW-620 colon = tested on: SW-620 colon
HCC-2998 colon = tested on: HCC-2998 colon
OVCAR-3 ovarian = tested on: OVCAR-3 ovarian
MDA-N = tested on: MDA-N
NCI-H460 lung = tested on: NCI-H460 lung
KM12 colon = tested on: KM12 colon
SNB-75 CNS = tested on: SNB-75 CNS
HOP-62 NSCLC = tested on: HOP-62 NSCLC

With `Cn1c2nc3ccccc3c-2cc2ccccc21` the GI50 (M14 melanoma) was 4.29 µM and 11.2 µM, the TGI (M14 melanoma) was > 42.2 µM and 23.6 µM and the GI50 (NCI/ADR-RES ovarian) was 2.76 µM and 12.1 µM. For the same molecule, the TGI (NCI/ADR-RES ovarian) was 20.2 µM and > 100 µM, the GI50 (UO-31 renal) was 2.6 µM and 5.47 µM and the TGI (UO-31 renal) was 11.6 µM and 37.7 µM. The GI50 (TK-10 renal) was 7.63 µM and 31 µM, the TGI (TK-10 renal) was 70.3 µM and > 100 µM and the GI50 (RPMI-8226 leukemia) was 2.45 µM and 7.55 µM. For the same molecule, the TGI (RPMI-8226 leukemia) was 10.2 µM and 39 µM, the GI50 (MOLT-4 leukemia) was 1.38 µM and 2.97 µM and the TGI (MOLT-4 leukemia) was 7.15 µM and 9.9 µM. For the same molecule, the GI50 (UACC-257 melanoma) was 3.91 µM and 8.6 µM, the TGI (UACC-257 melanoma) was 35.5 µM and 44 µM and the TGI (MCF7 breast) was > 34.8 µM and 36.9 µM. For the same molecule, the GI50 (HCT-116 colon) was 1.8 µM and 4.57 µM, the TGI (HCT-116 colon) was > 100 µM and the TGI (PC-3 prostate) was > 45.9 µM and 23.6 µM. For the same molecule, the TGI (DU-145 prostate) was > 100 µM, the TGI (SR leukemia) was 7.25 µM and 10.7 µM and the GI50 (ACHN renal) was 2.06 µM and 4.8 µM. For the same molecule, the TGI (ACHN renal) was 15.2 µM and > 100 µM, the TGI (CCRF-CEM leukemia) was > 43.5 µM and 25 µM and the TGI (SF-539 CNS) was 16 µM and 17.5 µM. For the same molecule, the GI50 (HCT-15 colon) was 1.14 µM and 4.06 µM, the TGI (HCT-15 colon) was 7.3 µM and 23.4 µM and the TGI (LOX IMVI melanoma) was > 31.8 µM and 22.5 µM. For the same molecule, the GI50 (HOP-92 NSCLC) was 3.06 µM and 11.7 µM, the TGI (HOP-92 NSCLC) was 30.7 µM and 46.7 µM and the TGI (IGROV1 ovarian) was 25.5 µM and > 100 µM. For the same molecule, the TGI (HL-60(TB) leukemia) was 8.22 µM and 17 µM, the TGI (HT29 colon) was 18.3 µM and 31.4 µM and the GI50 (NCI-H23 lung) was 3.35 µM and 10.6 µM. For the same molecule, the TGI (NCI-H23 lung) was 11.5 µM and 23.2 µM, the GI50 (OVCAR-5 ovarian) was 4.12 µM and 11.4 µM and the TGI (OVCAR-5 ovarian) was 36.9 µM and 40.9 µM. For the same molecule, the GI50 (SK-MEL-28 melanoma) was 4.87 µM and 10.8 µM, the TGI (SK-MEL-28 melanoma) was > 43.2 µM and 23.1 µM and the GI50 (A498 renal) was 5.12 µM and 18.4 µM. The TGI (A498 renal) was 17.1 µM and 43.5 µM, the GI50 (SNB-19 CNS) was 5.94 µM and 14.7 µM and the TGI (SNB-19 CNS) was > 100 µM. For the same molecule, the GI50 (RXF 393 renal) was 3.45 µM and 7.68 µM, the TGI (RXF 393 renal) was 14.8 µM and 20.1 µM and the TGI (K-562 leukemia) was > 100 µM and 39.7 µM. For the same molecule, the GI50 (UACC-62 melanoma) was 3.05 µM and 8.55 µM, the TGI (UACC-62 melanoma) was 8.85 µM and 20.8 µM and the TGI (T-47D breast) was > 100 µM. The GI50 (HS 578T breast) was 4.54 µM and 17.7 µM, the TGI (HS 578T breast) was 16.4 µM and 61.3 µM and the GI50 (MDA-MB-231 breast) was 5.58 µM and 11.6 µM. The TGI (MDA-MB-231 breast) was > 60.7 µM and 33.1 µM, the GI50 (SK-MEL-5 melanoma) was 4 µM and 8.37 µM and the TGI (SK-MEL-5 melanoma) was 16.8 µM and 24 µM. For the same molecule, the TGI (786-0 renal) was > 100 µM, the TGI (SK-OV-3 ovarian) was > 100 µM and the GI50 (OVCAR-4 ovarian) was 3.81 µM and 10.7 µM. The TGI (OVCAR-4 ovarian) was 19 µM and 26.2 µM, the GI50 (OVCAR-8 ovarian) was 2.48 µM and 7.18 µM and the TGI (OVCAR-8 ovarian) was 13.6 µM and > 100 µM. The TGI (SF-295 CNS) was > 40.5 µM and 20.8 µM, the TGI (MDA-MB-435) was > 46.4 µM and 19 µM and the TGI (BT-549 breast) was 9.09 µM. The GI50 (MALME-3M melanoma) was 2.86 µM and 18.5 µM, the TGI (MALME-3M melanoma) was 12.8 µM and > 100 µM and the TGI (EKVX NSCLC) was 15.6 µM and 33.9 µM. For the same molecule, the GI50 (CAKI-1 renal) was 2.6 µM and 5.52 µM, the TGI (CAKI-1 renal) was 8.7 µM and 37.1 µM and the GI50 (SK-MEL-2 melanoma) was 3.94 µM and 11.1 µM. For the same molecule, the TGI (SK-MEL-2 melanoma) was 17.2 µM and 24 µM, the GI50 (NCI-H522 lung) was 2.07 µM and 6.03 µM and the TGI (NCI-H522 lung) was 10.3 µM and 23.7 µM. The GI50 (NCI-H226 lung) was 3.46 µM and 11.2 µM, the TGI (NCI-H226 lung) was 19.3 µM and 31.5 µM and the GI50 (A549 NSCLC) was 3.38 µM and 7.11 µM. The TGI (A549 NSCLC) was 33.2 µM and 88.7 µM, the GI50 (U251 CNS) was 4.17 µM and 8.75 µM and the TGI (U251 CNS) was > 53.5 µM and 32.4 µM. The GI50 (SN12C renal) was 3.14 µM and 6.46 µM, the TGI (SN12C renal) was 36.3 µM and 34.9 µM and the TGI (COLO 205 colon) was > 35.9 µM and 17.2 µM. For the same molecule, the GI50 (SF-268 CNS) was 3.95 µM and 8.47 µM, the TGI (SF-268 CNS) was 17 µM and 40.3 µM and the TGI (SW-620 colon) was > 48.7 µM and 39 µM. The TGI (HCC-2998 colon) was 17.6 µM, the TGI (OVCAR-3 ovarian) was > 46.2 µM and 28 µM and the GI50 (MDA-N) was 4.27 µM and 10.4 µM. The TGI (MDA-N) was 30.1 µM and 23.1 µM, the TGI (NCI-H460 lung) was 11.9 µM and 12.9 µM and the GI50 (KM12 colon) was 2.19 µM and 6.02 µM. For the same molecule, the TGI (KM12 colon) was 11 µM and 46.4 µM, the GI50 (SNB-75 CNS) was 3.22 µM and 13.4 µM and the TGI (SNB-75 CNS) was 12.7 µM and 39.1 µM.
Molecule `C=C(C)[C@@H]1CC[C@]2(C(=O)O)CC[C@]3(C)[C@H](CC[C@@H]4[C@@]5(C)CC[C@H](C(=O)/C=C/c6ccc(O)cc6)C(C)(C)[C@@H]5CC[C@]43C)[C@@H]12` has a TGI (M14 melanoma) of 21.9 µM, a TGI (NCI/ADR-RES ovarian) of 29.3 µM and a TGI (UO-31 renal) of 18.4 µM. The TGI (TK-10 renal) was 20.9 µM, the TGI (MOLT-4 leukemia) was 51.6 µM and the TGI (UACC-257 melanoma) was 16.5 µM. The TGI (MCF7 breast) was 11.5 µM, the TGI (HCT-116 colon) was > 100 µM and the TGI (PC-3 prostate) was 19 µM. The TGI (DU-145 prostate) was 18.1 µM, the TGI (SR leukemia) was > 100 µM and the TGI (CCRF-CEM leukemia) was 23.6 µM. It also gave a TGI (SF-539 CNS) of 20.3 µM, a TGI (HCT-15 colon) of 17.3 µM and a TGI (LOX IMVI melanoma) of 22.4 µM. For the same molecule, the TGI (HOP-92 NSCLC) was 29.2 µM, the TGI (IGROV1 ovarian) was 28.3 µM and the TGI (HL-60(TB) leukemia) was 12.7 µM. The TGI (HT29 colon) was 45.4 µM, the TGI (NCI-H23 lung) was 20.8 µM and the TGI (OVCAR-5 ovarian) was 23.7 µM. For the same molecule, the TGI (SK-MEL-28 melanoma) was 26.5 µM, the TGI (A498 renal) was 26.5 µM and the TGI (SNB-19 CNS) was 27.7 µM. For the same molecule, the TGI (RXF 393 renal) was 65.1 µM, the TGI (K-562 leukemia) was > 100 µM and the TGI (UACC-62 melanoma) was 30 µM. The TGI (T-47D breast) was 20.7 µM, the TGI (HOP-62 NSCLC) was 27.8 µM and the TGI (HS 578T breast) was 36.2 µM. The TGI (MDA-MB-231 breast) was 23 µM, the TGI (SK-MEL-5 melanoma) was 10.4 µM and the TGI (786-0 renal) was > 100 µM. For the same molecule, the TGI (SK-OV-3 ovarian) was 36.3 µM, the TGI (OVCAR-4 ovarian) was 72.4 µM and the TGI (OVCAR-8 ovarian) was 53.9 µM. The TGI (SF-295 CNS) was 21.7 µM, the TGI (MDA-MB-435) was 24.4 µM and the TGI (BT-549 breast) was 38.5 µM. For the same molecule, the TGI (MALME-3M melanoma) was 70.1 µM, the TGI (EKVX NSCLC) was 24.4 µM and the TGI (CAKI-1 renal) was 9.43 µM. The TGI (SK-MEL-2 melanoma) was 46.8 µM, the TGI (NCI-H522 lung) was 39.5 µM and the TGI (A549 NSCLC) was > 100 µM. The TGI (U251 CNS) was > 100 µM, the TGI (SN12C renal) was 10.4 µM and the TGI (COLO 205 colon) was 9.53 µM. It also gave a TGI (SF-268 CNS) of 94.6 µM, a TGI (SW-620 colon) of 15.2 µM and a TGI (HCC-2998 colon) of 11.4 µM. The TGI (OVCAR-3 ovarian) was 10.3 µM, the TGI (MDA-N) was 18 µM and the TGI (NCI-H460 lung) was 17.3 µM. The TGI (KM12 colon) was 18.4 µM.
